Experimental data reported in PubChem BioAssay AID624404 (Broad Institute, 2012).
Results filed as inconclusive are left out.

system: D54 LucT luciferase reporter counterscreen, luminescence, 24 h; assay: reporter signal increase, D54 LucT cells – cell-based, luminescence, cherry pick, counter-screen for N-linked glycosylation inhibitor project, dose response (AID 624404)

SMILES | AC35 [nM]
COc1ccc(OC)c(N(CC(=O)Nc2cccc3ccccc23)S(C)(=O)=O)c1 | 2420
Cc1ccc(C2=NN(C(=O)CSc3nccn3C)C(c3ccco3)C2)cc1 (stereo not drawn) | 323
Nc1nc(CN2CCN(Cc3ccccc3)CC2)nc(Nc2ccc3c(c2)OCCO3)n1 | 251
CCOC(=O)c1c(NC(C)=O)sc2c(OCCN(CC)CC)c(Br)ccc12 | 7.67
Cc1ccc(NCCN(C)C)c2c(=O)c3cc(O)ccc3sc12 | 5710
Cc1ccc(C(=O)N2CCN(Cc3ccccc3)CC2)cc1S(=O)(=O)N1CCOCC1 | 2960
Cn1c(=O)[nH]c(=O)c2c1nc(N1CCN(Cc3ccccc3)CC1)n2CCCc1ccccc1 | 465
O=C(NCCCn1ccnc1)c1cc(-c2ccccc2)on1 | 1480
Cn1c(-c2ccccc2)c(/C=N/NC(=O)c2cccnc2)c2ccccc21 | 171
Cc1ccc(S(=O)(=O)[N-]c2nc3ccccc3nc2-n2cc[n+](Cc3ccccc3)c2)cc1 | 33.9
COc1ccc(/C=C/C(=O)c2c(O)cc(OC)cc2OC)cc1 | 3210
COc1ccccc1NC(=O)c1ccc(-c2ccc(Br)cc2)o1 | 466
Cc1ccc(NC(=O)c2ncn(CCCNCc3ccccc3)n2)cc1C | 994
COc1cccc(C2=CC(c3cccs3)n3nnnc3N2)c1 (stereo not drawn) | 951
O=C(Nc1ccncc1)C1CCCN(S(=O)(=O)c2cccc3cccnc23)C1 (stereo not drawn) | 4670
CC(C)(C)c1ccc(C(=O)NNC(=O)c2cccc(Br)c2)cc1 | 5040
COc1cc(NC(=O)c2ccc(-c3c(C)noc3C)c3ccoc23)cc(OC)c1OC | 58.2
COc1cc(OC)cc(C(=O)NCC(=O)Nc2ccc(-c3ccccc3)cc2)c1 | 501
CC[C@H](C)C(=O)O[C@H]1C[C@@H](C)C=C2C=C[C@H](C)[C@H](CC[C@@H]3C[C@@H](O)CC(=O)O3)[C@H]21 | 695
CC(=O)c1c(C)[nH]c(C(=O)Nc2cccc(S(=O)(=O)N3CCCC3)c2)c1C | 3950
COc1ccc(C(=O)N2CCN(S(=O)(=O)c3ccc(C)cc3C)CC2)cc1S(=O)(=O)N1CCOCC1 | 4790
Cn1cccc1/C=C1\SC(=Nc2cccc(O)c2)NC1=O | 1760
CN(C)c1ccc(/C=N/NC(=O)c2ccccc2Cl)cc1 | 119
Cc1ccc(-n2c(SCC(=O)NCCC3=CCCCC3)nc3n[nH]c(C)c3c2=N)cc1Cl | 39.9
COc1ccccc1CCNCc1ccc(OC)c(OCc2ccccc2)c1 | 1170
Oc1ccc(-c2csc(-c3c[nH]c4ccccc34)n2)c(O)c1 | 697

SMILES | AC35 [nM]
COc1ccc(Cl)cc1NC(=O)Nc1ccc(C(=O)N2CCCC2)cc1 | 2950
CCOC(=O)[C@H]1[C@H]2COc3ccc(OC)cc3[C@@H]2N2C(=O)c3cc(OC)c(OC)cc3NC(=O)[C@@]12C | 3030
COc1ccc(CNC(=O)c2cccc3c(-c4cccc(C(N)=O)c4)coc23)cc1OC | 408
C=CCn1c(O)c(C(CC)=NC(C)c2ccccc2)c(=O)[nH]c1=O (stereo not drawn) | 1080
O=C1Nc2ccccc2/C1=C/c1cnc[nH]1 | 7.09
Cn1c(=O)n(C)c2cc(S(=O)(=O)N3CCCc4ccccc43)ccc21 | 10200
COc1ccc(C(=O)/C=C/c2ccc(-c3ccccc3)cc2)cc1CSCC(=O)O | 875
COc1ccc(NC(=O)C2Cc3c(-c4cccc(NC(C)=O)c4)ccnc3O2)cc1OC (stereo not drawn) | 1830
CC(=O)Nc1sc(NC(=O)c2ccccc2)nc1-c1cccs1 | 8340
CC(=O)Nc1ccc(Nc2ccc3c4c(cc(=O)n3C)-c3ccccc3C(=O)c24)cc1 | 345
COc1cc(F)ccc1-c1csc(C(NC(C)=O)c2ccccc2)n1 (stereo not drawn) | 243
O=C(CN1CCC(O)(c2cccc(F)c2)CC1)NCCc1c[nH]c2ccccc12 | 972
Cc1ccc(S/C=C\C(=O)c2ccccc2)cc1 | 135
CCOC(=O)Nc1nc2ccc(Cn3cccc3)cc2[nH]1 | 115
COc1ccccc1N1CCN(c2ccc3c(c2)S(=O)(=O)c2cccc(C(=O)NCC4CC4)c2C3=O)CC1 | 1190
O=C(Nc1cccc(NC(=O)c2cccs2)c1)c1ccc([N+](=O)[O-])o1 | 1050
Cc1cnc(C(=O)Nc2ccc(OC(F)(F)F)cc2)cn1 | 3180
Cn1c(=O)[nH]c(=O)c2c1nc(N(CCO)Cc1ccccc1)n2CCCc1ccccc1 | 547
COc1ccccc1/C=C/C(=O)/C=C/c1ccccc1O | 266
CC[C@]12c3[nH]c4cc(CCC(=O)N(C)C)ccc4c3CCN1C(=O)[C@@H](CC(=O)NC/C=C(\C)CCC=C(C)C)C[C@@H]2C(=O)N1CCN(C(=O)c2ccco2)CC1 | 267
COC(=O)c1ccc(C)c(NC(=O)CN(c2cc(OC)ccc2OC)S(C)(=O)=O)c1 | 226
Cn1cc(C(=O)N/N=C/C(Br)=C/c2ccccc2)ccc1=O | 3760
Cc1cccc(/C=N\Nc2cn[nH]c(=O)c2Cl)c1 | 163
O=C1C=C(c2cccs2)C[C@H](c2ccccc2)[C@H]1n1nnc([N+](=O)[O-])n1 | 208
COC(=O)c1ccc2c(=O)n(Cc3ccc(C(=O)NC(C)C)cc3)c(=S)[nH]c2c1 | 4280
Cc1ccc(/C=N/NC(=O)c2sccc2OCc2ccc(F)cc2)cc1 | 1260

SMILES | AC35 [nM]
COc1cc(/C=N/NC(=O)c2ccc(-c3ccccc3)cc2)cc(OC)c1OC | 4600
Cc1ccc(NC2=NC3(CCCC3)N=C(N)N2)c(C)c1 | 7540
Cc1ccc(C(=O)NC(=C(Cl)Cl)S(=O)(=O)c2ccc(Cl)cc2)cc1 | 12700
COc1ccc2c(c1)OC[C@H]1[C@H]2N2C(=O)c3cc(Br)ccc3NC(=O)[C@@]2(C)[C@H]1c1ccccc1 | 944
CCOC(=O)N1CCN(C(=O)c2cc(-c3ccncc3)nc3ccccc23)CC1 | 5630
COc1ccc(C(=O)/C=C/c2ccccc2)c(O)c1 | 404
COc1cccc(C2=CC(c3cccc(OC)c3OC)n3nnnc3N2)c1 (stereo not drawn) | 765
COc1cc(-c2nccc3cc4c(cc23)OCO4)cc(OC)c1OC | 61.7
COc1ccccc1-n1cnc2cc(NCc3cccs3)ccc21 | 266
COc1cccc(C(N)c2nc(-c3csc4ccccc34)cs2)c1 (stereo not drawn) | 4880
O=C(Nc1ccc2oc(-c3cccnc3)nc2c1)c1ccc([N+](=O)[O-])o1 | 1460
NNC(=O)c1ccc2nc(-c3ccc(Br)cc3)cn2c1 | 780
COc1cccc(Sc2ccccc2/C=N/NC(N)=O)c1 | 3390
Cc1ccc(S(=O)(=O)Nc2ccc3c(c2)n(C)c(=O)n3C)cc1 | 694
COc1cc(C(=O)Nc2cc(C(F)(F)F)ccc2N2CCOCC2)ccc1OCC(=O)N1CCOCC1 | 2130
Cn1c(=O)n(C)c2cc(NC(=O)CCl)ccc21 | 707
COCCNC(=S)N1CCc2cc(OC)c(OC)cc2C1c1cccs1 (stereo not drawn) | 352
Cc1ccc2c(c1)[C@H]1[C@H](CO2)[C@H](c2ccccc2)[C@]2(C)C(=O)Nc3cc(Cl)ccc3C(=O)N12 | 1060
COc1ccc(-n2c(=S)[nH]c3cc(C(=O)NC4CCCCC4)ccc3c2=O)c(OC)c1 | 414
Cc1nc2ncccn2c1-c1csc(Nc2ccc(N(C)C)cc2)n1 | 28.9
c1ccc(N=Nc2ccc3cccccc2-3)cc1 | 355
NC(=O)c1cccc(-c2coc3c(C(=O)NCc4ccccc4)cccc23)c1 | 3070
OCCCCCN=c1cc(-c2ccccc2)oc2ccc(Cl)cc12 | 2190
C=CCNc1nc2cc(-c3ccccc3C)sc2c(=O)n1C | 1110
CC(C)C1N=C(c2ccc3c(c2)OCO3)CC(c2ccccc2O)N1 (stereo not drawn) | 3510
CC(C)(C)c1ccc(OCc2ccc(C(=O)Nc3cccnc3)o2)cc1 | 519
